Experiment: in vitro
Details: human, hek293t cells

Row | SMILES | viability at 48 h, 25 µM [%]
1 | Cn1nccc1CN1C[C@@H](F)C[C@H]1CNC(=O)CCl [5-C04, 2-chloro-N-{[(2S,4S)-4-fluoro-1-[(1-methyl-1H-pyrazol-5-yl)methyl]pyrrolidin-2-yl]methyl}acetamide] | 117
2 | COc1cc(NC(=O)CCl)c(OC)cc1Cl [5-C05, 2-chloro-N-(4-chloro-2,5-dimethoxyphenyl)acetamide] | 0.731
3 | Cc1cccc(NC(=O)[C@@H]2CCCN2C(=O)CCl)n1 [5-C06, (2S)-1-(2-chloroacetyl)-N-(6-methylpyridin-2-yl)pyrrolidine-2-carboxamide] | 0.946
4 | O=C(CCl)NCC1CCCCN1C(=O)C(F)(F)F (centres unmarked) [5-C07, 2-chloro-N-{[1-(2,2,2-trifluoroacetyl)piperidin-2-yl]methyl}acetamide] | 1.83
5 | CCc1nc(C2CCCN2C(=O)CCl)no1 (centres unmarked) [5-C08, 2-chloro-1-[2-(5-ethyl-1,2,4-oxadiazol-3-yl)pyrrolidin-1-yl]ethan-1-one] | 1.18
6 | O=C(CCl)NC1CCN(C(=O)C2COc3ccccc3O2)CC1 (centres unmarked) [5-C09, 2-chloro-N-[1-(2,3-dihydro-1,4-benzodioxine-2-carbonyl)piperidin-4-yl]acetamide] | 1.13
7 | CNC(=O)c1ccc(O)c(NC(=O)CCl)c1 [5-C10, 3-(2-chloroacetamido)-4-hydroxy-N-methylbenzamide] | 114
8 | CC(C)C1C(=O)Nc2ccc(Cl)cc2N1C(=O)CCl (centres unmarked) [5-C11, 6-chloro-4-(2-chloroacetyl)-3-(propan-2-yl)-1,2,3,4-tetrahydroquinoxalin-2-one] | -0.0252
9 | Cc1cc(CN(C(=O)CCl)c2csnc2C)cs1 [5-C12, 2-chloro-N-(3-methyl-1,2-thiazol-4-yl)-N-[(5-methylthiophen-3-yl)methyl]acetamide] | 0.6
10 | Cc1c(CN(CC2CC=CCC2)C(=O)CCl)cnn1C (centres unmarked) [5-C14, 2-chloro-N-[(cyclohex-3-en-1-yl)methyl]-N-[(1,5-dimethyl-1H-pyrazol-4-yl)methyl]acetamide] | 0.469
11 | Cn1nc(C(F)(F)F)cc1CN(C(=O)CCl)C1CCCC1 [5-C16, 2-chloro-N-cyclopentyl-N-{[1-methyl-3-(trifluoromethyl)-1H-pyrazol-5-yl]methyl}acetamide] | 0.815
12 | COc1ccccc1NC(=O)c1ccc(NC(=O)C(C)Cl)cc1 (centres unmarked) [5-C17, 4-(2-chloropropanamido)-N-(2-methoxyphenyl)benzamide] | 58
13 | O=C(CCl)NCC12CCCCC1C2(F)F (centres unmarked) [5-C18, 2-chloro-N-({7,7-difluorobicyclo[4.1.0]heptan-1-yl}methyl)acetamide] | 8.39
14 | CC(Cl)C(=O)Nc1ccc2c(c1)CCC2 (centres unmarked) [5-C19, 2-chloro-N-(2,3-dihydro-1H-inden-5-yl)propanamide] | 68.8
15 | COc1cccc2c1CCC2(CO)NC(=O)CCl (centres unmarked) [5-C20, 2-chloro-N-[1-(hydroxymethyl)-4-methoxy-2,3-dihydro-1H-inden-1-yl]acetamide] | 58.2
16 | CC(Cl)C(=O)Nc1sccc1C(N)=O (centres unmarked) [5-C21, 2-(2-chloropropanamido)thiophene-3-carboxamide] | 85.4
17 | CN1CCN(C(=O)Cc2cccc(NC(=O)CCl)c2)CC1 [5-C22, 2-chloro-N-{3-[2-(4-methylpiperazin-1-yl)-2-oxoethyl]phenyl}acetamide] | 1.44
18 | O=C(CCl)N1CCN(C(=O)c2cn(C3CC3)nn2)CC1 [5-D03, 2-chloro-1-[4-(1-cyclopropyl-1H-1,2,3-triazole-4-carbonyl)piperazin-1-yl]ethan-1-one] | 2.35
19 | CCOC(=O)c1c(NC(=O)C(C)Cl)sc2c1CCC(C)C2 (centres unmarked) [5-D04, ethyl 2-(2-chloropropanamido)-6-methyl-4,5,6,7-tetrahydro-1-benzothiophene-3-carboxylate] | 90.9
20 | O=C(NC1CCCN(C(=O)CCl)C1)c1cc2ccccc2o1 (centres unmarked) [5-D05, N-[1-(2-chloroacetyl)piperidin-3-yl]-1-benzofuran-2-carboxamide] | 0.852

Source: PMC11995724, “Antibiotic target discovery by integrated phenotypic and activity-based profiling of electrophilic fragments” (Cell chemical biology, 2025)
